In assay [1] the target is T1, Cysteine--tRNA ligase, cytoplasmic (Homo sapiens, UniProt P49589).
T1 sequence (P49589 whole entry): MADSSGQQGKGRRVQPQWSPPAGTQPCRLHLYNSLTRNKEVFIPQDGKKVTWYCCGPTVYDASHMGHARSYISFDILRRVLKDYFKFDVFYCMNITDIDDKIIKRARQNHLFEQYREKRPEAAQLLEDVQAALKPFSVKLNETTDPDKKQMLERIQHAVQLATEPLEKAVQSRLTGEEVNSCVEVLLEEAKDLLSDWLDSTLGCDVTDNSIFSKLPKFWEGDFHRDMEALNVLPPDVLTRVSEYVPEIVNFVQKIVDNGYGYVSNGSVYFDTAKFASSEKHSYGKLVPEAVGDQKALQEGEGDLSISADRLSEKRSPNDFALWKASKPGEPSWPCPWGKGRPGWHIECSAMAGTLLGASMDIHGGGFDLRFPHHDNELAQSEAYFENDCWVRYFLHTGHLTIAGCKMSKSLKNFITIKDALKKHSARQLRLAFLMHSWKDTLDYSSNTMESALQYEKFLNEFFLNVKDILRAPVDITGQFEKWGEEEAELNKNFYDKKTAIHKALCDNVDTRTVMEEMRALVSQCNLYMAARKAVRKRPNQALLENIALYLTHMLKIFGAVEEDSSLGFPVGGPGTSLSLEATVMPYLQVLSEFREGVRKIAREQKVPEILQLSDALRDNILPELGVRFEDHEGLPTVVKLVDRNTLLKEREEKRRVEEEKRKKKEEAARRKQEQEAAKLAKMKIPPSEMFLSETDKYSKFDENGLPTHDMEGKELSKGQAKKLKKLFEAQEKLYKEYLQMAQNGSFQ

For a further assay, the target named is Ephrin type-A receptor 4 (Homo sapiens, UniProt P54764).
Sequence of Ephrin type-A receptor 4 (P54764 whole entry): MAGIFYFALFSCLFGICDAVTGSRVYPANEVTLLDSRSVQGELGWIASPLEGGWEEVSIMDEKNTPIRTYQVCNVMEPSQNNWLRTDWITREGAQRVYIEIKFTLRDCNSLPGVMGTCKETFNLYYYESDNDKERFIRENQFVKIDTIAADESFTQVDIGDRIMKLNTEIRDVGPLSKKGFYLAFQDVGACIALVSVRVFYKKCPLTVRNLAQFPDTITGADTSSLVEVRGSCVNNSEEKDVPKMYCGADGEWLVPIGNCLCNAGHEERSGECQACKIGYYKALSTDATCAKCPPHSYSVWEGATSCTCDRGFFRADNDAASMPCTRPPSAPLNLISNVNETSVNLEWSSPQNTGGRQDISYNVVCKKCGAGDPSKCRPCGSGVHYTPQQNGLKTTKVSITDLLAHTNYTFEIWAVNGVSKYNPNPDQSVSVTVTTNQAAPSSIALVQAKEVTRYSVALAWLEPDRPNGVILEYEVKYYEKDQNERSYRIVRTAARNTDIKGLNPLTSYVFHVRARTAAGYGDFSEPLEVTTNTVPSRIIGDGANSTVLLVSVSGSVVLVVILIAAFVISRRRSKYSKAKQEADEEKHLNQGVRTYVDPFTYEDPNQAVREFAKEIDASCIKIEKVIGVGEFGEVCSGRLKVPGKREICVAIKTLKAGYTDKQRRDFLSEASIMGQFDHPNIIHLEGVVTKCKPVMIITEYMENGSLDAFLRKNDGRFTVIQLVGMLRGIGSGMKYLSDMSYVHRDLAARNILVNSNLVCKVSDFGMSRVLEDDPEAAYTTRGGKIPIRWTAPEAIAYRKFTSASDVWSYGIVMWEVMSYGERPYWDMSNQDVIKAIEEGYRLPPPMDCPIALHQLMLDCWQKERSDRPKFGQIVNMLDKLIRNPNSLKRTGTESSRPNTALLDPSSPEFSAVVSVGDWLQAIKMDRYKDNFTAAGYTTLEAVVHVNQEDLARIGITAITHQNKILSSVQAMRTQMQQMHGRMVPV
In assay [2] the target is T2, Serine/threonine-protein kinase TBK1 (Homo sapiens, UniProt Q9UHD2).
T2 sequence (Q9UHD2 whole entry): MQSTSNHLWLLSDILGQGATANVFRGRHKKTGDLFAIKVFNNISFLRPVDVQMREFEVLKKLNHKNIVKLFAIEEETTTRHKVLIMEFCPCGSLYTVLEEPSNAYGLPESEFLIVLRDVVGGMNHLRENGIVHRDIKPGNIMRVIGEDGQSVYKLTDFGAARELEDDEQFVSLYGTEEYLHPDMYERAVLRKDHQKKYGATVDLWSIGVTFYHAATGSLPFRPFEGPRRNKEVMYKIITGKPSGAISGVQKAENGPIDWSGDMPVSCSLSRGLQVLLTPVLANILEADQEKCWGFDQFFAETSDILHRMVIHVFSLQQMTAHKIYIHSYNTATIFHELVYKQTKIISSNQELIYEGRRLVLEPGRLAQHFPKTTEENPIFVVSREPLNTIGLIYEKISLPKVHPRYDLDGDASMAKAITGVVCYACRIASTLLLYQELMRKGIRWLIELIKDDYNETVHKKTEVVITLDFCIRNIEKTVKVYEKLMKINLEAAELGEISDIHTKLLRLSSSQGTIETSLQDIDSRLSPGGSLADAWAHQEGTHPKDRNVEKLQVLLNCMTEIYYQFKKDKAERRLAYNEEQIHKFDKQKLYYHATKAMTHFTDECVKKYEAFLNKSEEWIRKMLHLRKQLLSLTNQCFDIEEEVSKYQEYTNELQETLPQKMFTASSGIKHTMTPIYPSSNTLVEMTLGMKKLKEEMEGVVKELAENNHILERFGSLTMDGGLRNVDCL

In assay [3] the target is T3, Serine/threonine-protein kinase ICK (Homo sapiens, UniProt Q9UPZ9).
T3 sequence (Q9UPZ9 whole entry): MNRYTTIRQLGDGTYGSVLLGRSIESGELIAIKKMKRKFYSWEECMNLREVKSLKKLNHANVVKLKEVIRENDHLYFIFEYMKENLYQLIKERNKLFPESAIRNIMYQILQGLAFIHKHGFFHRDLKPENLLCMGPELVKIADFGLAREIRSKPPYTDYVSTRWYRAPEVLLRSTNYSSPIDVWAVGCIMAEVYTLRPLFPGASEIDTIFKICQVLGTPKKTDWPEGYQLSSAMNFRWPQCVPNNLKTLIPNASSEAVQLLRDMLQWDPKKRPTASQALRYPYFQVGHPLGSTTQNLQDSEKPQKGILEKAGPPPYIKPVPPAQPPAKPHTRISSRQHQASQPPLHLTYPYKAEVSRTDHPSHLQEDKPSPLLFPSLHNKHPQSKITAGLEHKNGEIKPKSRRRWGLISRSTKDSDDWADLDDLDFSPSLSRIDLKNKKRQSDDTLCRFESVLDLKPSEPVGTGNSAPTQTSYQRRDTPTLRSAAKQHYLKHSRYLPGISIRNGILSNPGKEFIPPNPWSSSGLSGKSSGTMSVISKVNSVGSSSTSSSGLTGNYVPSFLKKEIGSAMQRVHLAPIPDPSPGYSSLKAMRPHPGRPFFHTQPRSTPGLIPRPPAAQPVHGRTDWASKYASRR

In assay [4] the target is TRAF2 and NCK-interacting protein kinase (Homo sapiens, UniProt Q9UKE5).
Sequence of TRAF2 and NCK-interacting protein kinase (Q9UKE5 whole entry): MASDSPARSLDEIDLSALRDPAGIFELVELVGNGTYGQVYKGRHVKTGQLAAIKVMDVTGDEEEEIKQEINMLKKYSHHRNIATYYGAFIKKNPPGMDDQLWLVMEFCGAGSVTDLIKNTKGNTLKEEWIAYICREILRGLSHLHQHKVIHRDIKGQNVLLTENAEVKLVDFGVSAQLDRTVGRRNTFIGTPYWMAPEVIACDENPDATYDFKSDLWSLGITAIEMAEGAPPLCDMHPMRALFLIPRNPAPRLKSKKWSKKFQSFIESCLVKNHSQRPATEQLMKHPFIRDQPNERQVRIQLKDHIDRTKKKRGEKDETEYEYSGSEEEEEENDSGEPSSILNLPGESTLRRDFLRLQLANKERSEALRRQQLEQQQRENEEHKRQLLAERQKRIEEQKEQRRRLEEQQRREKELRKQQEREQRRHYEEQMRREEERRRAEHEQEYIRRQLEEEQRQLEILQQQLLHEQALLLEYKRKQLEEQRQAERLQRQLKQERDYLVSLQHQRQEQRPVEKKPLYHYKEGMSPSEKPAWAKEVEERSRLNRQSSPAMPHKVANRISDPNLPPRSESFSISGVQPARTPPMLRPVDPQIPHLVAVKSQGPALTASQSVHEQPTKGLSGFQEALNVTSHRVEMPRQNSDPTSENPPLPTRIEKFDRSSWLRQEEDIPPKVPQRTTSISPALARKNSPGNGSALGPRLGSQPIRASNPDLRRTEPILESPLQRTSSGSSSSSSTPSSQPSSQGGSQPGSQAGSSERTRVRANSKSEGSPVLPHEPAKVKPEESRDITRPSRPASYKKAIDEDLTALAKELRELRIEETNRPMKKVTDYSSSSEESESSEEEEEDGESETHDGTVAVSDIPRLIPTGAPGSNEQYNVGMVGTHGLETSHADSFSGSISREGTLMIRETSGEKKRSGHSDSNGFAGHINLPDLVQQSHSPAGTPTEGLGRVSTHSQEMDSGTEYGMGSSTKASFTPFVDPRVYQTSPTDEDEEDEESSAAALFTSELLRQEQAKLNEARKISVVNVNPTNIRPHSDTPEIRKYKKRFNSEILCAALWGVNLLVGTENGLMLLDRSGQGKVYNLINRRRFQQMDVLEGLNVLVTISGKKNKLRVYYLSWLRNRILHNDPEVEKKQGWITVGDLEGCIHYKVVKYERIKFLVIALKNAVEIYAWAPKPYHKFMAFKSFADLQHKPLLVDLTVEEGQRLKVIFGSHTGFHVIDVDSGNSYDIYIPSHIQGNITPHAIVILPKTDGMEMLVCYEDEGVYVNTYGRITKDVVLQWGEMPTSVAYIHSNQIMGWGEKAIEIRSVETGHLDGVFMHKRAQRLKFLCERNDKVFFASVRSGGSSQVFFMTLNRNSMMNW
Assay [5] has as its target Adenylate kinase 2, mitochondrial (Homo sapiens, UniProt P54819).
Assay [6] deals with T4, Serine/threonine-protein kinase A-Raf (Homo sapiens, UniProt P10398).
T4 sequence (P10398 whole entry): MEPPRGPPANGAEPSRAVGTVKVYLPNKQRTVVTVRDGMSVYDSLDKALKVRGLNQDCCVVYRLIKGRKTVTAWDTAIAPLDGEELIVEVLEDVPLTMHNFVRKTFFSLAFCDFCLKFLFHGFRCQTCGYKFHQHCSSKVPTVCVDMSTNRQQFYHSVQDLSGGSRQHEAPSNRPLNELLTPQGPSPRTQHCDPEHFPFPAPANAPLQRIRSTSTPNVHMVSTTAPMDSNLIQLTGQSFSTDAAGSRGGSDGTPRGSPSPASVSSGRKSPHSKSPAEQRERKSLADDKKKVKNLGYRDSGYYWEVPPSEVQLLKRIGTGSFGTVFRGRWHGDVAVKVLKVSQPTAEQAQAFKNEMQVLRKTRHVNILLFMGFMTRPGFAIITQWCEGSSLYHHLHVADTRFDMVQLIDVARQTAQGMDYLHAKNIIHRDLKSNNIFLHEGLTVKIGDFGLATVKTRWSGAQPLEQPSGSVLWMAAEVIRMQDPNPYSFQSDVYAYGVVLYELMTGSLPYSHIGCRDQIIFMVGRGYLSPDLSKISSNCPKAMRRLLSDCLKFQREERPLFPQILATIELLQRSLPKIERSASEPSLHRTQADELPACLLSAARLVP

The target of assay [7] is Mitogen-activated protein kinase kinase kinase kinase 5 (Homo sapiens, UniProt Q9Y4K4).
Sequence of Mitogen-activated protein kinase kinase kinase kinase 5 (Q9Y4K4 whole entry): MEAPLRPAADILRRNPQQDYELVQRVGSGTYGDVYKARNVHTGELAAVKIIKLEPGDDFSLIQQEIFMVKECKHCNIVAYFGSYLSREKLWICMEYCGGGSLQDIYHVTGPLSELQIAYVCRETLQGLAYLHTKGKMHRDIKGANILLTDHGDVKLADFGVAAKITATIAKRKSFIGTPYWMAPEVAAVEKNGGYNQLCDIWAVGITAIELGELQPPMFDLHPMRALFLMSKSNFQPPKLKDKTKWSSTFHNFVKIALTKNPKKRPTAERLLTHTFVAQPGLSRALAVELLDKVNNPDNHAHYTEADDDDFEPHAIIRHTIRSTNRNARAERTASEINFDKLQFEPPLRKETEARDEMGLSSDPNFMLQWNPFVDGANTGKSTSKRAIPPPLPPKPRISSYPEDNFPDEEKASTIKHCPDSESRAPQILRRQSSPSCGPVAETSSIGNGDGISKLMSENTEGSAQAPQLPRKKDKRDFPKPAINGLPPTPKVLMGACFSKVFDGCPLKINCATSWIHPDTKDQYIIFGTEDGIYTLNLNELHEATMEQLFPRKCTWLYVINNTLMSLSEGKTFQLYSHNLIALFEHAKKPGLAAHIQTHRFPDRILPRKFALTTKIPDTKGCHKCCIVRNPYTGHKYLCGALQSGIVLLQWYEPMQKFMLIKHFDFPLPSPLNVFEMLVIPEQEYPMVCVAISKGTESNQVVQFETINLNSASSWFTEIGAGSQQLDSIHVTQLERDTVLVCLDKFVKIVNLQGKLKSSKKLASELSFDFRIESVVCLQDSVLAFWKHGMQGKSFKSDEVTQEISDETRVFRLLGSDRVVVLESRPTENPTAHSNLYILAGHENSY

Activity calls are given as the source filed them. Rule as the data show it, for most assays here: actives have a measured Kd and inactives only a lower limit.

Data on twelve compounds can be found in ChEMBL document CHEMBL3991601, “The target landscape of clinical kinase drugs” (Science, 2017).

As usually defined, the Kd is a measure of binding affinity in units of concentration.
Also: in the data inactive means no Kd found up to 30 µM.

For `C=CC(=O)Nc1cc(Nc2nccc(-c3cn(C)c4ccccc34)n2)c(OC)cc1N(C)CCN(C)C` [OSIMERTINIB], the Kd in assay [1] is 0.012 µM; on Ephrin type-A receptor 4, > 30 µM (inactive); in assay [2], > 30 µM (inactive); in assay [3], > 30 µM (inactive); in assay [4], > 30 µM (inactive); in assay [5], > 30 µM (inactive). Moreover, the Kd in assay [6] and in assay [7] was > 30 µM (inactive) throughout.
`COCCN1CCN(Cc2ccc(-c3n[nH]c4c3C(=O)c3c(NC(=O)NN5CCOCC5)cccc3-4)cc2)CC1` [RGB-286638]: the Kd in assay [1] is > 30 µM (inactive); at Ephrin type-A receptor 4, > 30 µM (inactive); in assay [2], 2.01 µM (active); in assay [3], 0.008 µM (active); in assay [4], > 30 µM (inactive); in assay [5] it was > 30 µM (inactive). In addition, the Kd in assay [6] and in assay [7] was > 30 µM (inactive) throughout.
Regarding `COc1cc(Nc2ncc(F)c(Nc3ccc4c(n3)N(COP(=O)(O)O)C(=O)C(C)(C)O4)n2)cc(OC)c1OC` [FOSTAMATINIB], the Kd (in assay [1]; at Ephrin type-A receptor 4; in assay [2]; in assay [3]; in assay [4]; in assay [5]) was > 30 µM (inactive) in each case. Further, the Kd in assay [6] and in assay [7] was > 30 µM (inactive) throughout.
Regarding `C#Cc1cccc(Nc2ncnc3cc4c(cc23)OCCOCCOCCO4)c1` [ICOTINIB], the Kd in assay [1] was 0.652 µM (active); at Ephrin type-A receptor 4, > 30 µM (inactive); in assay [2], > 30 µM (inactive); in assay [3], > 30 µM (inactive); in assay [4], > 30 µM (inactive); in assay [5], > 30 µM (inactive). Moreover, the Kd in assay [6] and in assay [7] was > 30 µM (inactive) throughout.
`Cn1cc(-c2[nH]c3cc(NC(=O)[C@H](N)C4CCCCC4)cc4c3c2C=NNC4=O)cn1`: the Kd in assay [1] was > 30 µM (inactive); at Ephrin type-A receptor 4, > 30 µM (inactive); in assay [2] it was > 30 µM (inactive); in assay [3], > 30 µM (inactive); in assay [4], 0.251 µM; in assay [5], > 30 µM (inactive). For the same compound, the Kd is > 30 µM (inactive) in assay [6] and 2.64 µM (active) in assay [7].
Turning to `FC(F)(F)c1ccc(CNc2ccc(Cc3c[nH]c4ncc(Cl)cc34)cn2)cn1` [PEXIDARTINIB], the Kd (in assay [1]; at Ephrin type-A receptor 4; in assay [2]; in assay [3]; in assay [4]; in assay [5]) was > 30 µM (inactive) each time. Further, the Kd in assay [6] and in assay [7] was > 30 µM (inactive) each time.
Consider `CC(C)(O)CC(=O)NCCn1ccc2ncnc(Nc3ccc(Oc4cccc(C(F)(F)F)c4)c(Cl)c3)c21` [TAK-285], for which the Kd (in assay [1]; at Ephrin type-A receptor 4; in assay [2]; in assay [3]; in assay [4]; in assay [5]) was > 30 µM (inactive) throughout. Moreover, the Kd in assay [6] and in assay [7] was > 30 µM (inactive) throughout.
As to `CCc1nc(C(N)=O)c(Nc2ccc(N3CCC(N4CCN(C)CC4)CC3)c(OC)c2)nc1NC1CCOCC1` [GILTERITINIB], the Kd (in assay [1]; on Ephrin type-A receptor 4; in assay [2]; in assay [3]; in assay [4]; in assay [5]) was > 30 µM (inactive) throughout. For the same compound, the figures for the Kd in assay [6] and in assay [7] were > 30 µM (inactive) and 3.12 µM (active), respectively.
Consider `COc1cc(F)c(F)c(Nc2ccc(I)cc2F)c1NS(=O)(=O)C1(C[C@H](O)CO)CC1` [REFAMETINIB], for which the Kd (in assay [1]; on Ephrin type-A receptor 4; in assay [2]; in assay [3]; in assay [4]; in assay [5]) was > 30 µM (inactive) each time. Also, the Kd in assay [6] and in assay [7] was > 30 µM (inactive) each time.
For the compound `COc1cc2ncnc3c2cc1OCCCCCN(C)Cc1ccc(Br)cc1N3` [JNJ-26483327], the Kd (in assay [1]; on Ephrin type-A receptor 4; in assay [2]; in assay [3]; in assay [4]; in assay [5]) was > 30 µM (inactive) throughout. Besides, the Kd in assay [6] and in assay [7] was > 30 µM (inactive) in each case.
Turning to `CCc1cc2c(cc1N1CCC(N3CCOCC3)CC1)C(C)(C)c1[nH]c3cc(C#N)ccc3c1C2=O` [ALECTINIB], the Kd (in assay [1]; on Ephrin type-A receptor 4; in assay [2]; in assay [3]; in assay [4]; in assay [5]) was > 30 µM (inactive) in each case. Besides, the Kd in assay [6] and in assay [7] was > 30 µM (inactive) in each case.
In the case of `COc1cc2ncnc(Nc3ccc(F)c(Cl)c3)c2cc1NC(=O)/C=C/CN1CCCCC1` [DACOMITINIB ANHYDROUS], the Kd (in assay [1]; at Ephrin type-A receptor 4; in assay [2]; in assay [3]; in assay [4]; in assay [5]) was > 30 µM (inactive) throughout. Also, the Kd in assay [6] and in assay [7] was > 30 µM (inactive) throughout.
